Test results as given in patent US8299277B2, “Radiation protection drug containing tocopherol or tocotrienol compound ester derivative as active ingredient” (priority 2006, dated 2012).

Tested on: male C3H mice irradiated with X-rays
Assay: 30-day survival of mice after X-ray irradiation (radiation protection)
Type: in vivo
Method: Seven to thirteen male C3H mice aged 10 weeks (body weight: 25-28 g) per group were irradiated with X-rays (7.5-8.5 Gy) and their survival rate was determined 30 days after the irradiation. To each of drug-treated groups was intraperitoneally or subcutaneously administered 0.5% methylcellulose solution (0.3 ml) containing d-γ-tocopherol-N,N-dimethylglycine ester hydrochloride in an amount of 10-300 mg/Kg, before or after the irradiation. To a control group was intraperitoneally administered 0.5% methylcellulose solution in a volume of 0.3 ml per mouse.
Eight to eleven male C3H mice aged 10 weeks (body weight: 25-28 g) per group were irradiated with X-rays (7.5 Gy) and their survival rate was measured 30 days after the irradiation. To drug-treated groups was intraperitoneally administered 0.5% methylcellulose solution (0.3 ml) containing d-α-tocopherol-N,N-dimethylglycine ester hydrochloride, d-γ- or d-α-tocotrienol-N,N-dimethylglycine ester hydrochloride, d-γ- or dl-α-tocopherol phosphate disodium salt, or d-γ-tocopherol-N-methyl-L-proline ester hydrochloride, respectively, in an amount of 100 mg/Kg, immediately after the irradiation. To a control group was intraperitoneally administered 0.5% methylcellulose solution in a volume of 0.3 ml per mouse.

[1] = 100 mg/kg i.p., 7.5 Gy X-rays, administered immediately after irradiation, C3H mice (Table 2)

Cc1c(C)c2c(c(C)c1OP(=O)([O-])[O-])CCC(C)(CCCC(C)CCCC(C)CCCC(C)C)O2.[Na+].[Na+] (racemic) [dl-α-Tocopherol phosphate disodium salt]
Survival rate after 30 days (%) [1]: 40%

CC(C)=CCCC(C)=CCCC(C)=CCCC1(C)CCc2c(C)c(OC(=O)CN(C)C)c(C)c(C)c2O1.Cl (stereo not drawn) [d-α-Tocotrienol-N,N-dimethylglycine ester hydrochloride]
Survival rate after 30 days (%) [1]: 91%

Cc1c(C)c2c(c(C)c1OC(=O)CN(C)C)CCC(C)(CCCC(C)CCCC(C)CCCC(C)C)O2.Cl (stereo not drawn) [d-α-tocopherol-N,N-dimethylglycine ester hydrochloride]
Survival rate after 30 days (%) [1]: 95%

Cc1c(OP(=O)([O-])[O-])cc2c(c1C)OC(C)(CCCC(C)CCCC(C)CCCC(C)C)CC2.[Na+].[Na+] (stereo not drawn) [d-γ-Tocopherol phosphate disodium salt]
Survival rate after 30 days (%) [1]: 70%

CC(C)=CCCC(C)=CCCC(C)=CCCC1(C)CCc2cc(OC(=O)CN(C)C)c(C)c(C)c2O1.Cl (stereo not drawn) [d-γ-Tocotrienol-N,N-dimethylglycine ester hydrochloride]
Survival rate after 30 days (%) [1]: 85%

Cc1c(OC(=O)[C@@H]2CCCN2C)cc2c(c1C)OC(C)(CCCC(C)CCCC(C)CCCC(C)C)CC2.Cl (stereo partly drawn) [d-γ-tocopherol-L-N-methylproline ester hydrochloride]
Survival rate after 30 days (%) [1]: 90%

Cc1c(OC(=O)CN(C)C)cc2c(c1C)OC(C)(CCCC(C)CCCC(C)CCCC(C)C)CC2.Cl (stereo not drawn) [d-γ-tocopherol-N,N-dimethylglycine ester hydrochloride]
Survival rate after 30 days (%) (10 mg/kg i.p., 7.5 Gy X-rays, administered immediately after irradiation, C3H mice): 10% | Survival rate after 30 days (%) (20 mg/kg i.p., 7.5 Gy X-rays, administered immediately after irradiation, C3H mice): 60% | Survival rate after 30 days (%) (50 mg/kg i.p., 7.5 Gy X-rays, administered immediately after irradiation, C3H mice): 85% | Survival rate after 30 days (%) (100 mg/kg S.C. administration, 7.5 Gy X-rays, administered immediately after irradiation, C3H mice): 85% | Survival rate after 30 days (%) (100 mg/kg i.p., 7.5 Gy X-rays, administered 30 min. before irradiation, C3H mice): 60% | Survival rate after 30 days (%) (100 mg/kg i.p., 7.5 Gy X-rays, administered 1 hr. after irradiation, C3H mice): 88% | Survival rate after 30 days (%) (100 mg/kg i.p., 7.5 Gy X-rays, administered 10 hrs. after irradiation, C3H mice): 75% | Survival rate after 30 days (%) (100 mg/kg i.p., 7.5 Gy X-rays, administered 24 hrs. after irradiation, C3H mice): 40% | Survival rate after 30 days (%) (100 mg/kg i.p., 7.5 Gy X-rays, administered immediately after irradiation, C3H mice (Table 1)): 98% | Survival rate after 30 days (%) (100 mg/kg i.p., 7.5 Gy X-rays, administered immediately before irradiation, C3H mice): 80% | Survival rate after 30 days (%) (100 mg/kg i.p., 8 Gy X-rays, administered immediately after irradiation, C3H mice): 78% | Survival rate after 30 days (%) (100 mg/kg i.p., 8.5 Gy X-rays, administered immediately after irradiation, C3H mice): 37% | Survival rate after 30 days (%) (300 mg/kg i.p., 7.5 Gy X-rays, administered immediately after irradiation, C3H mice): 55%
